What was measured:
Experiment in all cases: relative viability (nuclei count vs DMSO), 5 days (fraction); higher = more cells survive
[1] = system: HCC-366
Method in brief: (§1)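 Medians of duplicate plates are given as relative viability. That measure is the nuclei count in treated wells divided by the count in vehicle wells. Counts were taken on 4× images of lung cancer cell lines in 1536-well plates, 5 days after pin-tool dosing the day after seeding with one drug alone or a fixed anchor-drug dose plus five library-drug doses (not always all listed) in √10 steps.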

[2] = system: NCI-H1395
Method in brief: as §1

[3] = system: NCI-H2087
Method in brief: as §1

[4] = system: SK-LU-1
Method in brief: as §1

[5] = system: NCI-H522
Method in brief: as §1

[6] = system: NCI-H647
Method in brief: as §1

[7] = system: NCI-H2405
Method in brief: as §1

[8] = system: NCI-H1993
Method in brief: as §1

[9] = system: HARA
Method in brief: as §1

[10] = system: NCI-H2170
Method in brief: as §1

[11] = system: BEN
Method in brief: as §1

[12] = system: SK-MES-1
Method in brief: as §1

[13] = system: EKVX
Method in brief: as §1

[14] = system: NCI-H661
Method in brief: as §1

[15] = system: LOU-NH91
Method in brief: as §1

[16] = system: NCI-H1734
Method in brief: as §1

[17] = system: HCC-827
Method in brief: as §1

[18] = system: NCI-H1792
Method in brief: as §1

[19] = system: NCI-H1437
Method in brief: as §1

[20] = system: NCI-H2009
Method in brief: as §1

[21] = system: NCI-H2342
Method in brief: as §1

[22] = system: NCI-H1355
Method in brief: as §1

COc1cc2nccc(Oc3ccc(NC(=O)Nc4cc(C)on4)c(Cl)c3)c2cc1OC [Tivozanib] + CC(=O)c1c(C)c2cnc(Nc3ccc(N4CCNCC4)cn3)nc2n(C2CCCC2)c1=O [Palbociclib] (partner 0.5 µM)
relative viability ([1]; first compound 0.005 µM): 0.394
relative viability ([1]; first compound 0.01581 µM): 0.422
relative viability ([1]; first compound 0.05 µM): 0.362
relative viability ([1]; first compound 0.1581 µM): 0.343
relative viability ([1]; first compound 0.5 µM): 0.322
relative viability ([2]; first compound 0.005 µM): 0.581
relative viability ([2]; first compound 0.01581 µM): 0.587
relative viability ([2]; first compound 0.05 µM): 0.659
relative viability ([2]; first compound 0.1581 µM): 0.55
relative viability ([2]; first compound 0.5 µM): 0.509
relative viability ([3]; first compound 0.005 µM): 0.271
relative viability ([3]; first compound 0.01581 µM): 0.288
relative viability ([3]; first compound 0.05 µM): 0.259
relative viability ([3]; first compound 0.1581 µM): 0.231
relative viability ([3]; first compound 0.5 µM): 0.231
relative viability ([4]; first compound 0.005 µM): 0.372
relative viability ([4]; first compound 0.01581 µM): 0.396
relative viability ([4]; first compound 0.05 µM): 0.386
relative viability ([4]; first compound 0.1581 µM): 0.367
relative viability ([4]; first compound 0.5 µM): 0.37
relative viability ([5]; first compound 0.005 µM): 1
relative viability ([5]; first compound 0.01581 µM): 0.849
relative viability ([5]; first compound 0.05 µM): 0.889
relative viability ([5]; first compound 0.1581 µM): 0.894
relative viability ([5]; first compound 0.5 µM): 1.21
relative viability ([6]; first compound 0.005 µM): 0.396
relative viability ([6]; first compound 0.01581 µM): 0.391
relative viability ([6]; first compound 0.05 µM): 0.3
relative viability ([6]; first compound 0.1581 µM): 0.32
relative viability ([6]; first compound 0.5 µM): 0.35
relative viability ([7]; first compound 0.005 µM): 0.534
relative viability ([7]; first compound 0.01581 µM): 0.55
relative viability ([7]; first compound 0.05 µM): 0.528
relative viability ([7]; first compound 0.1581 µM): 0.527
relative viability ([7]; first compound 0.5 µM): 0.466
relative viability ([8]; first compound 0.005 µM): 0.551
relative viability ([8]; first compound 0.01581 µM): 0.641
relative viability ([8]; first compound 0.05 µM): 0.638
relative viability ([8]; first compound 0.1581 µM): 0.537
relative viability ([8]; first compound 0.5 µM): 0.617
relative viability ([9]; first compound 0.005 µM): 0.297
relative viability ([9]; first compound 0.01581 µM): 0.208
relative viability ([9]; first compound 0.05 µM): 0.3
relative viability ([9]; first compound 0.1581 µM): 0.245
relative viability ([9]; first compound 0.5 µM): 0.272
relative viability ([10]; first compound 0.005 µM): 0.398
relative viability ([10]; first compound 0.01581 µM): 0.392
relative viability ([10]; first compound 0.05 µM): 0.414
relative viability ([10]; first compound 0.5 µM): 0.388
relative viability ([11]; first compound 0.005 µM): 0.508
relative viability ([11]; first compound 0.01581 µM): 0.497
relative viability ([11]; first compound 0.05 µM): 0.453
relative viability ([11]; first compound 0.1581 µM): 0.44
relative viability ([11]; first compound 0.5 µM): 0.459
relative viability ([12]; first compound 0.005 µM): 0.306
relative viability ([12]; first compound 0.01581 µM): 0.345
relative viability ([12]; first compound 0.05 µM): 0.365
relative viability ([12]; first compound 0.1581 µM): 0.326
relative viability ([12]; first compound 0.5 µM): 0.376
relative viability ([13]; first compound 0.005 µM): 0.37
relative viability ([13]; first compound 0.01581 µM): 0.455
relative viability ([13]; first compound 0.05 µM): 0.449
relative viability ([13]; first compound 0.1581 µM): 0.291
relative viability ([13]; first compound 0.5 µM): 0.407
relative viability ([14]; first compound 0.005 µM): 0.401
relative viability ([14]; first compound 0.01581 µM): 0.387
relative viability ([14]; first compound 0.05 µM): 0.422
relative viability ([14]; first compound 0.1581 µM): 0.409
relative viability ([14]; first compound 0.5 µM): 0.387
relative viability ([15]; first compound 0.005 µM): 0.431
relative viability ([15]; first compound 0.01581 µM): 0.498
relative viability ([15]; first compound 0.05 µM): 0.513
relative viability ([15]; first compound 0.1581 µM): 0.549
relative viability ([15]; first compound 0.5 µM): 0.538
relative viability ([16]; first compound 0.005 µM): 0.313
relative viability ([16]; first compound 0.01581 µM): 0.34
relative viability ([16]; first compound 0.05 µM): 0.335
relative viability ([16]; first compound 0.1581 µM): 0.336
relative viability ([16]; first compound 0.5 µM): 0.345
relative viability ([17]; first compound 0.005 µM): 0.498
relative viability ([17]; first compound 0.01581 µM): 0.506
relative viability ([17]; first compound 0.05 µM): 0.539
relative viability ([17]; first compound 0.1581 µM): 0.448
relative viability ([17]; first compound 0.5 µM): 0.412
relative viability ([18]; first compound 0.005 µM): 0.686
relative viability ([18]; first compound 0.01581 µM): 0.643
relative viability ([18]; first compound 0.05 µM): 0.553
relative viability ([18]; first compound 0.1581 µM): 0.698
relative viability ([18]; first compound 0.5 µM): 0.747
relative viability ([19]; first compound 0.005 µM): 0.364
relative viability ([19]; first compound 0.01581 µM): 0.344
relative viability ([19]; first compound 0.05 µM): 0.286
relative viability ([19]; first compound 0.1581 µM): 0.368
relative viability ([19]; first compound 0.5 µM): 0.26
relative viability ([20]; first compound 0.005 µM): 0.212
relative viability ([20]; first compound 0.01581 µM): 0.209
relative viability ([20]; first compound 0.05 µM): 0.23
relative viability ([20]; first compound 0.1581 µM): 0.109
relative viability ([20]; first compound 0.5 µM): 0.119
relative viability ([21]; first compound 0.005 µM): 0.495
relative viability ([21]; first compound 0.01581 µM): 0.524
relative viability ([21]; first compound 0.05 µM): 0.536
relative viability ([21]; first compound 0.5 µM): 0.469
relative viability ([22]; first compound 0.005 µM): 0.401
relative viability ([22]; first compound 0.01581 µM): 0.447
relative viability ([22]; first compound 0.05 µM): 0.445
relative viability ([22]; first compound 0.1581 µM): 0.326
relative viability ([22]; first compound 0.5 µM): 0.417

From the supplement of paper PMC10307832
